# Experimental data: patent US9682976B2, “Protein kinase C inhibitors and uses thereof” (Rigel Pharmaceuticals, Inc., priority 2012, dated 2017)
# Tested on: PKC mediated IL-2 production
# Assay: IL-2 ELISA, human primary T cell, anti CD3+CD28+
# Assay type: cell-based
# Conditions: Homo sapiens, T-cell, 24 h, human primary T cells stimulated with αCD3 and αCD28, 24 hours
# Protocol: Compounds 1-328 were tested in a whole cell functional assay for PKC mediated IL-2 production as follows. Human primary T cell isolation and culture: Human primary T cells were prepared as follows. Whole blood was obtained from a healthy volunteer, mixed 1:1 with PBS, layered on to Ficoll Hypaque (Amersham Pharmacia Biotech, Piscataway, N.J., Catalog #17-1440-03) in 2:1 blood/PBS:ficoll ratio and centrifuged for 30 minutes at 4° C. at 1750 rpm. The cells at the serum: ficoll interface were recovered and washed twice with 5 volumes of PBS. These freshly isolated human peripheral blood mononuclear cells were cultured in Yssel's medium containing 40 U/ml IL2 in a flask pre-coated with […] αCD3 and 5 μg/ml αCD28 (Anti-Human CD3, BD Pharmingen Catalog #555336, Anti-Human CD28, Beckman Coulter Catalog #IM1376). The cells were stimulated for 3-4 days, then transferred to a fresh flask and maintained in RPMI (RPMI-1640 with L-Glutamine; Mediatech, Inc., Herndon Va., cat. #10-040-CM) with 10% FBS and 40 U/ml IL-2. The primary T-cells were then washed twice with PBS to remove the IL-2.
# Primary T cell stimulation and IL2 ELISA: Human primary T cells (100,000 cells per well) were pre-incubated with or without test compound in Yssel's medium for 1 hour at 37° C. Cells were then stimulated by transferring them to round-bottom 96-well plates pre-coated with […] αCD3 and 5 μg/ml αCD28. For counter assay, cells were instead stimulated by adding 8× stock solutions of PMA and ionomycin in Yssels (for final concentrations of 0.5 ng/ml PMA and 0.1 uM ionomycin, both from Calbiochem). Cells were incubated at 37° C. for 24 hours before 100 μL supernatants were harvested for quantification of IL-2 by ELISA using Human IL-2 Duoset ELISA Kit from R and D Systems, Cat. # DY202E.
row,EC50 [µM],SMILES
1,0.1 to 0.5,"Cn1nnn(-c2cc(Nc3ncc(F)c(NC4CC5CCCN5C(C)(C)C4)n3)ccc2OC2COC2)c1=O (single isomer, unassigned) [Compound 39, 1-(5-(5-fluoro-4-(octahydro-5,5-dimethylindolizin-7-ylamino)pyrimidin-2-ylamino)-2-(oxetan-3-yloxy)phenyl)-4-methyl-1H-tetrazol-5(4H)-one]"
2,< 0.1,"CC1(C)CC(Nc2nc(Nc3cc(-n4cnnn4)c(C4CC4)cc3F)ncc2F)CC2CCCN21 (single isomer, unassigned) [Compound 54, N^2-(4-cyclopropyl-2-fluoro-5-(1H-tetrazol-1-yl)phenyl)-5-fluoro-N^4-(octahydro-5,5-dimethylindolizin-7-yl)pyrimidine-2,4-diamine]"
3,0.1 to 0.5,"Cn1nnn(-c2cc(Nc3ncc(F)c(N[C@@H]4C[C@@H]5CCCN5C(C)(C)C4)n3)ccc2OC2CCOCC2)c1=O (stereo in doubt) [Compound 52, 1-(5-(5-fluoro-4-(octahydro-5,5-dimethylindolizin-7-ylamino)pyrimidin-2-ylamino)-2-(tetrahydro-2H-pyran-4-yloxy)phenyl)-4-methyl-1H-tetrazol-5(4H)-one]"

# Same assay, conditions: human primary T cells stimulated with αCD3 and αCD28, 24 hours
row,SMILES,EC50 [µM]
1,"CC1(C)CC(Nc2nc(Nc3cc(-n4cnnn4)c(C4CC4)cc3F)ncc2F)CC2CCCN21 (single isomer, unassigned) [Compound 55, N^2-(4-cyclopropyl-2-fluoro-5-(1H-tetrazol-1-yl)phenyl)-5-fluoro-N^4-(octahydro-5,5-dimethylindolizin-7-yl)pyrimidine-2,4-diamine]",0.1 to 0.5
2,"CC1(C)Oc2ccc(Nc3ncc(F)c(N[C@H]4C[C@H]5CCCN5C(C)(C)C4)n3)cc2-n2nnnc21 [Compound 1, N2-(4,4-dimethyl-4H-benzo[b]tetrazolo[1,5-d][1,4]oxazin-8-yl)-5-fluoro-N4-(octahydro-5,5-dimethylindolizin-7-amine)pyrimidine-2,4-diamine]",0.1 to 0.5
3,"CC1(C)Oc2ccc(Nc3ncc(F)c(N[C@@H]4C[C@H]5CCCN5C(C)(C)C4)n3)cc2-n2nnnc21 [Compound 2, N2-(4,4-dimethyl-4H-benzo[b]tetrazolo[1,5-d][1,4]oxazin-8-yl)-5-fluoro-N4-(octahydro-5,5-dimethylindolizin-7-amine)pyrimidine-2,4-diamine]",< 0.1
4,"CC1(C)Oc2ccc(Nc3ncc(F)c(N[C@@H]4C[C@@H]5CCCN5C(C)(C)C4)n3)cc2-n2nnnc21 [Compound 4, N2-(4,4-dimethyl-4H-benzo[b]tetrazolo[1,5-d][1,4]oxazin-8-yl)-5-fluoro-N4-(octahydro-5,5-dimethylindolizin-7-amine)pyrimidine-2,4-diamine]",1 to 10
5,CC1(C)Oc2c(F)cc(Nc3ncc(F)c(NC4CC5CCCN5C(C)(C)C4)n3)cc2-n2nnnc21 (centres unmarked) [Compound 5],0.1 to 0.5
6,"CC(C)N1CCC(Oc2ccc(Nc3ncc(F)c(NC4CC5CCCN5C(C)(C)C4)n3)cc2OC(F)F)CC1 (centres unmarked) [Compound 6, (R/S, S/R, R/R, S/S)-N^2-(4-(1-isopropylpiperidin-4-yloxy)-3-(difluoromethoxy)phenyl)-5-fluoro-N^4-(octahydro-5,5-dimethylindolizin-7-yl)pyrimidine-2,4-diamine]",0.1 to 0.5

# Further lines, results first:
row,EC50 [µM],SMILES
1,1 to 10,"CC1(C)CC(Nc2nc(Nc3ccc(O[C@@H]4CCOC4)c(C#N)c3)ncc2F)CC2CCCN21 (single isomer, unassigned) [Compound 58]"
2,0.1 to 0.5,"CC1(C)CC(Nc2nc(Nc3ccc(O[C@@H]4CCOC4)c(C#N)c3)ncc2F)CC2CCCN21 (single isomer, unassigned) [Compound 59]"
3,0.5 to 1,"CC1(C)CC(Nc2nc(Nc3ccc(O[C@H]4CCOC4)c(C#N)c3)ncc2F)CC2CCCN21 (single isomer, unassigned) [Compound 61]"
4,0.1 to 0.5,"CC1(C)CC(Nc2nc(Nc3ccc(O[C@H]4CCOC4)c(C#N)c3)ncc2F)CC2CCCN21 (single isomer, unassigned) [Compound 62]"
5,0.5 to 1,"Cn1nc2n(c1=O)-c1cc(Nc3ncc(F)c(N[C@@H]4C[C@@H]5CCCN5C(C)(C)C4)n3)ccc1OCC2(C)O (single isomer, unassigned) [Compound 294]"
